Experiments:
[1] = Pharmacokinetic study, plasma C6 after IV administration; assay type: in vivo; settings: rats, IV 0.5 mg/kg
Experimental: Wistar rats (180–200 g) were obtained from the Institute of Laboratory Animal Science, Chinese Academy of Medical Sciences, Beijing, China, and all animal experiments were performed in accordance with the regulations of the Animal Care and Use Committee of the Chinese Academy of Medical Sciences. […] A standard diet of food and water was supplied ad libitum during the experiments. A polyethylene catheter (Portex, Hythe, UK) was inserted through the right jugular veins of all rats one day prior to the pharmacokinetic experiment, and flushed with 100 U/mL heparin in 0.9% saline. […] Subsequently, 100 μL of plasma was obtained by centrifugation at 5000 rpm for 7 min at 0 °C, and the serum was collected. The measurement of C6 in the samples was analyzed by a fluorescence microplate reader as described earlier.

[2] = Tissue distribution studies after IV administration; assay type: in vivo, rats; settings: IV 0.5 mg/kg; for Tmax / AUC0-t / Cmax: C6, rats; for AUC0-t / Cmax: n = 3
Experimental: Wistar rats (180–200 g) were obtained from the Institute of Laboratory Animal Science, Chinese Academy of Medical Sciences, Beijing, China, and all animal experiments were performed in accordance with the regulations of the Animal Care and Use Committee of the Chinese Academy of Medical Sciences. […] A standard diet of food and water was supplied ad libitum during the experiments. […] The samples were stored at −20 °C until further analysis. The drug-targeting index (DTI) is considered an important parameter for tissue targeting efficiency, and was calculated using the following formula: DTI=AUCx/AUCp(NPs)/AUCx/AUCP(Free drug) Where “AUCx” is the AUC of tissue x, and “AUCp” is the AUC of the plasma.

[3] = tested on: bEnd.3 cells; assay: Uptake of C6 CLS-PEG NPs by bEnd.3 cells; assay type: cell-based, mouse; settings: 20–100 μg/mL, 37 °C, 30 min to 4 h
Experimental: BEnd. 3 cells were seeded into a 6-well plate and cultured for 24 h. Then, the medium was replaced with different concentrations (20–100 μg/mL) of free C6 or CLS-PEG NPs encapsulated with C6, and incubated at 37 °C for 2 h. To study the effects of incubation time on CLS-PEG NPs uptake, the CLS-PEG NPs loaded C6 (50 μg/mL) and the free C6 solution were added into the wells, and the plate was incubated at 37 °C for 30 min, 1 h, 2 h, or 4 h. At the end of the experiment, the cells were washed with ice-cold PBS three times. Subsequently, the cells were lysed with cell lysate (Beijing Saichi Biotechnology Co., Ltd., China). The quantitative measurement of intracellular C6 in bEnd.3 cell lysates was analyzed by a fluorescence microplate reader as described earlier. Total cell protein concentrations of the bEnd.3 cells were determined using a BCA protein assay (Beijing Kangwei Century Biotechnology Co., Ltd., China). The uptake of CLS-PEG NPs by bEnd.3 cells was calculated and expressed as the amount of CLS-PEG NPs (μg) taken up per mg of cell protein.

[4] = Specificity to the brain, confocal laser scanning microscopy of brain sections; assay type: in vivo; settings: rats, IV, 0.5 h after dosing
Experimental: Subsequently, the brain tissues were removed, washed with PBS, and fixed in 4% formaldehyde solution. After snap freezing in liquid nitrogen, the samples were embedded in […]. compound (Sakura Finetechnical, Tokyo, Japan) and cut into thin sections (10 μm). The slices were stained for cell nuclei with DAPI for 15 min in the dark and then washed three times with cold PBS. The sample was monitored by confocal laser scanning microscopy (Zeiss LSM710, Göttingen, Germany). ZEN Image Software 2012 was used to perform the image recording and image analysis. The image included 512 × 512 pixels measuring 2.77 × 2.77 μm^2.

In the case of CCN(CC)c1ccc2cc(-c3nc4ccccc4s3)c(=O)oc2c1 [Free drug, coumarin-6], the AUC0-t ([1]; C6 in plasma, n = 6) is reported as 15.8 ± 2.4 µg·min/mL, the “AUC0-∞” value ([1]; C6 in plasma, n = 6) is reported as 16.0 ± 2.3 µg·min/mL and the C0 ([1]; C6 in plasma, n = 6) is reported as 828.4 ± 139.0 ng/mL. The CL ([1]; C6 in plasma, n = 6) was 6.4 ± 0.9 mL/min, the “Vd, λz” value ([1]; C6 in plasma, n = 6) was 0.6 ± 0.3 L and the “t1/2, λz” value ([1]; C6 in plasma, n = 6) was 60.1 ± 24.0 min. The “time after injection at which C6 was undetectable in plasma” value [1] was 4 h, the Tmax ([2]; Brain) was 30 min and the AUC0-t ([2]; Brain) was 3.84 ± 0.21 µg·min/mL. It also gave a Cmax ([2]; Brain) of 45.64 ± 2.25 ng/g, a Tmax ([2]; Heart) of 15 min and an AUC0-t ([2]; Heart) of 8.45 ± 0.93 µg·min/mL. It also gave a Cmax ([2]; Heart) of 113.89 ± 16.48 ng/g, a Tmax ([2]; Kidney) of 30 min and an AUC0-t ([2]; Kidney) of 2.56 ± 0.44 µg·min/mL. It also gave a Cmax ([2]; Kidney) of 22.20 ± 1.91 ng/g, a Tmax ([2]; Liver) of 15 min and an AUC0-t ([2]; Liver) of 141.71 ± 13.25 µg·min/mL. For the same compound, the Cmax ([2]; Liver) was 2685.53 ± 356.67 ng/g, the Tmax ([2]; Lung) was 30 min and the AUC0-t ([2]; Lung) was 63.88 ± 5.62 µg·min/mL. It also gave a Cmax ([2]; Lung) of 900.02 ± 67.86 ng/g, a Tmax ([2]; Spleen) of 15 min and an AUC0-t ([2]; Spleen) of 271.02 ± 16.03 µg·min/mL. For the same compound, the Cmax ([2]; Spleen) was 3848.83 ± 339.27 ng/g, the “distribution of C6 in the brain” value ([2]; rats) was “very little distribution in the brain” and the “cellular uptake by bEnd.3 cells” value [3] was “only minimally entered the cells”. For the same compound, the “C6 fluorescent signal in the brain” value [4] was “too weak to be distinguished”.
